Earlier results in patent US20200061095A1, “Compounds for the Treatment of Systemic Insulin Resistance Disorders and the Use Thereof” (Galectin Sciences, LLC, priority 2017, published 2020).

Assays:
lung fibrosis = settings: pulmonary administration, intra-tracheal instillation or nebulizers
Galectin 3 = Galectin 3 (Homo sapiens, UniProt P17931); settings: reported
Sequence of Galectin 3 (P17931 whole entry, species assumed): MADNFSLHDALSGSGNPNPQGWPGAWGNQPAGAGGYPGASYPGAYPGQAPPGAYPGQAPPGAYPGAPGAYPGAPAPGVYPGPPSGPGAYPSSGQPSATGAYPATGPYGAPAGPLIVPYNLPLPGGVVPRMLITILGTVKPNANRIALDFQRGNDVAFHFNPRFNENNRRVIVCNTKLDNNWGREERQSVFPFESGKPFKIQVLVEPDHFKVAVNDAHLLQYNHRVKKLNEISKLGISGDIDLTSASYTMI

## OC[C@H]1O[C@@H](S[C@@H]2O[C@H](CO)[C@H](O)[C@H](n3cc(-c4cccc(F)c4)nn3)[C@H]2O)[C@H](O)[C@@H](n2cc(-c3cccc(F)c3)nn2)[C@H]1O [TD-139]
Lung fibrosis
  efficacy in mouse model of lung fibrosis: effective
Galectin 3
  binding to Galectin 3: bind to Galectin 3
